Consider one compound from patent US11738037B2, “Agent for preventing or improving decline in brain function” (KYOWA HAKKO BIO CO., LTD., priority 2012, dated 2023).

Holding throughout (type): in vivo, C57BL/6J mice
Test [1] relates to bilateral common carotid arteries occlusion mice. Nature of the test: Y-maze test (spontaneous alternation behavior). The settings on record: oral, after 7 days of administration, FIG. 1. The method, then:
(§1) Experimental Example: 10-week-old male C57BL/6J mice (CLEA Japan, Inc. approximately 25 g of average body weight per mouse) were preliminarily acclimated for 1 week, and provided for experiments. L-citrulline and citicoline were obtained from KYOWA HAKKO BIO CO., LTD.
(§2) C57BL/6J mice were divided into a sham-operation group (Group 1) and a bilateral common carotid arteries occlusion group, which was performed under halothane anesthesia for 20 minutes. One day after reperfusion, the bilateral common carotid arteries occlusion group was further divided into a distilled water-treated group (Group 2), a low-dose L-citrulline-treated group (40 mg/kg: Group 3), a low-dose citicoline-treated group (40 mg/kg: Group 4), a high-dose L-citrulline-treated group (100 mg/kg: Group 5), a high-dose citicoline-treated group (100 mg/kg: Group 6), and a combination treatment group of a low dose of L-citrulline and a low dose of citicoline (each 40 mg/kg: Group 7). Each sample was orally administered for 12 days. […] After evaluating learning memory functions, the hippocampus was removed and viability of hippocampal nerve cells was evaluated.
In the Y-maze test, a Y-maze apparatus with three arms (50×16×32 cm) was used. […] The sequence of arm entries was recorded. The number of entries into each arm was counted during the measurement time, which was defined as the total number of entries. […]

Test [2] has the same test system. Nature of the test: Novel object recognition test. The following applies: oral, after 7 days of administration, novel vs familiar object, FIG. 3. The method, then:
as §1
as §2, with “7).” for “7). Each sample was orally administered for 12 days.”
The novel object recognition test was performed after mice were individually acclimated to the open field apparatus (35×25×35 cm) for 2 days. […] A ratio of the frequency of exploring the familiar or novel object over the total exploration frequency was calculated, and used as an index for visual recognition memory.

Test [3] shares this test system. The test is described as follows: Passive avoidance test. The following applies: oral, after 7 days of administration, compared to Group 2, FIG. 2. On the procedure: as §1
(§3) C57BL/6J mice were divided into a sham-operation group (Group 1) and a bilateral common carotid arteries occlusion group, which was performed under halothane anesthesia for 20 minutes. […] After evaluating learning memory functions, the hippocampus was removed and viability of hippocampal nerve cells was evaluated.
The passive avoidance test was performed using a box consisting of dark (25×25×25 cm) and light compartments (14×10×25 cm) and being equipped with an electrical stimulation apparatus at the bottom of the dark compartment. […] Twenty four hours after training, the mouse was placed again in the light compartment, and the latency time spent in the light compartment was recorded with a maximum latency of 300 seconds.

Test [4] deals with hippocampal nerve cells (CA1 pyramidal cell layer). Nature of the test: Evaluation of viability of hippocampal nerve cells. The settings on record: oral for 12 days, compared to Group 2, FIG. 4. The method, then: as §1, §3
Twelve days after bilateral occlusion of the common carotid arteries, mice were anesthetized with pentobarbital sodium, and perfused with ice-cold phosphate buffer (PBS, pH 7.4) until the blood in the body was completely removed. […] Surviving and non-surviving nerve cells in the CA1 pyramidal cell layer of the hippocampus were counted at 1.4 to 1.8 mm posterior to bregma, and cells with PI-positive nuclei and typical morphological characteristics were defined as surviving nerve cells. The cell viability was calculated from a ratio to the average number of surviving nerve cells in Group 1.

`NC(=O)NCCC[C@H](N)C(=O)O` [L-citrulline]: the “spontaneous alternation behavior rate (Alternation)” value in test [1] (high dose 100 mg/kg, compared to Group 2) is “improved effect of memory behavior”; in test [1] (low dose 40 mg/kg, compared to distilled water-treated occlusion group (Group 2)), “Alternation cannot be improved”. The “frequency of exploring the novel object” value in test [2] (high dose 100 mg/kg) is on record as “remarkably improved effect of memory behavior”; in test [2] (low dose 40 mg/kg) it was “frequency of exploring the novel object cannot be increased”. Besides, the “time spent in the light compartment (Latency time)” value in test [3] (high dose 100 mg/kg) is recorded as “improved effect of memory behavior”; in test [3] (low dose 40 mg/kg), “latency time cannot be improved”. In addition, the results for the “viability of hippocampal nerve cells” value in test [4] (high dose 100 mg/kg) and in test [4] (low dose 40 mg/kg) were “nerve cell-protecting effect” and “viability of hippocampal nerve cells cannot be improved”, respectively.
